Measurements from patent US20240317780A1, “RADIOPHARMACEUTICAL SOMATOSTATIN RECEPTOR LIGANDS AND PRECURSORS THEREOF” (Technische Universität München, priority 2021, published 2024).
Like-named read-outs stand apart in the source and are kept apart here. Where a SMILES comes first, the peptide text is derived from it. Bridges are numbered along the chain shown (N, C = ends). [ ]: non-standard residue; d: D form. The star is where a group is joined. ξ: configuration not given here. Benzoyl(4-SiFtBu2) = CC(C)(C)[Si](F)(c1ccc(C(=O)*)cc1)C(C)(C)C; DO3AM = NC(=O)CN1CCN(CC(N)=O)CCN(CC(=O)*)CCN(CC(N)=O)CC1; ξW = NC(Cc1c[nH]c2ccccc12)C(=O)O; dDap = NC[C@@H](N)C(=O)O; ξF = NC(Cc1ccccc1)C(=O)O; ξD = NC(CC(=O)O)C(=O)O; ξDap = NCC(N)C(=O)O; ξC = NC(CS)C(=O)O

Legend:
[1] = target: HSA (Homo sapiens, UniProt P02768); test: HSA binding by RIAC method (gel filtration, apparent molecular weight); assay type: in vitro ADME; details: HSA binding as apparent molecular weight, 700 μM HSA in PBS mobile phase
Procedure: A gel filtration column Superdex 75 Increase 10/300 GL (GE Healthcare, Uppsala, Sweden) was beforehand calibrated following the producer's recommendations with a commercially available gel filtration calibration kit (GE Healthcare, Buckinghamshire, UK) comprising conalbumin (MW: 75 kDa), ovalbumin (44 kDa), carbonic anhydrase (29 kDa), ribonuclease A (13.7 kDa) and aprotinin (6.5 kDa) as reference proteins of known molecular weight. AMSEC experiments were conducted using a constant flow rate of 0.8 mL/min at rt. A solution of HSA in PBS at physiological concentration (700 μM) was used as the mobile phase. SST2 ligands were labelled as described with molar activities of 10-20 GBq/μmol. Probes of 1.0 MBq of the radioligand were injected directly from the labelling solution. HSA binding was expressed as an apparent molecular weight MW calculated from the retention time of the radioligand using the determined calibration curve.
For evaluation, experimentally determined retention times tR are first converted into elution volumes Ve by multiplying with the flow rate and thereafter converted into partition coefficients Kav following the equation
where V0 is the column void volume (8.027 mL) and Vc is the geometric column volume (24 mL). Using the equation given by the trend line plot of the column calibration
the apparent molecular weight MW is calculated as […]

[2] = Biodistribution of 18F-labeled SST2 ligands in AR42J tumor-bearing mice; assay type: in vivo; details: female, CD1 nu/nu, mouse, iv, total radioactivity, 1 h post injection, tail vein
Procedure: All animal experiments were conducted in accordance with general animal welfare regulations in Germany and the institutional guidelines for the care and use of animals. To establish tumor xenografts, AR42J cells (5×10^6 cells/100 μL) were suspended in Dulbecco modified Eagle medium/Nutrition Mixture F-12 with Glutamax-1 (1:1) and inoculated subcutaneously onto the right shoulder of 8 weeks old, female CD1 nu/nu mice (Charles River, Sulzfeld, Germany). Mice were used for experiments when tumors had grown to a diameter of 5-9 mm (7-15 days after inoculation).
Approximately 0.5-2.0 MBq (0.05-0.25 nmol) of the ^18F-labeled SST2-ligands were injected into the tail vein of AR42J tumor-bearing female CD1 nu/nu mice and sacrificed after 1 h post injection (n=3-5). Selected organs were removed, weighted and measured in a γ-counter.
The Tables 4, 5, and 6 summarize the results of the in vivo mouse experiments. For all biodistribution studies, female CD1 nu/nu mice with AR42J tumor xenografts, were used and sacrificed 1 h post injection.

[3] = Octanol-water distribution coefficient (logD pH 7.4) of the labeled tracer; assay type: physicochemical; details: n-octanol/PBS pH 7.4, room temperature
Procedure, shortened: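 About 1 MBq tracer partitioned in 1:1 PBS pH 7.4/n-octanol, mixed 3 min at room temperature, centrifuged 15000 g for 5 min. Both layers counted by gamma counter; at least six repeats.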

[4] = target: T1, SST2 (Homo sapiens, UniProt P30874); test: Determination of IC50: competitive binding against [125I]TOC on SST2-transfected CHO cells; details: [125I]TOC reference radioligand, 60 min room temperature
T1 construct: expressed in transfected cells; host or cells: CHO (Chinese hamster ovary) cells
T1 sequence (P30874 whole entry, species assumed): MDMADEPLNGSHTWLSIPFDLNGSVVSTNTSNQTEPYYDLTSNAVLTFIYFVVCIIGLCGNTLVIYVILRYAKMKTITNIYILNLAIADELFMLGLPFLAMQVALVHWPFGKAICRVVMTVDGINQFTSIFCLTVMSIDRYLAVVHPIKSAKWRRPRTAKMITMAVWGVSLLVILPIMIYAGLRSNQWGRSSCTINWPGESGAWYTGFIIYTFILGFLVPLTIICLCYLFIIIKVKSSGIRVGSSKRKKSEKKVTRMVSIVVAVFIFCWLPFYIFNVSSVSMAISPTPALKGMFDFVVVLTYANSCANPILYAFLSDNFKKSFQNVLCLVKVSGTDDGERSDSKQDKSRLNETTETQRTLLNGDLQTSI

Sequence of HSA (P02768 25-609): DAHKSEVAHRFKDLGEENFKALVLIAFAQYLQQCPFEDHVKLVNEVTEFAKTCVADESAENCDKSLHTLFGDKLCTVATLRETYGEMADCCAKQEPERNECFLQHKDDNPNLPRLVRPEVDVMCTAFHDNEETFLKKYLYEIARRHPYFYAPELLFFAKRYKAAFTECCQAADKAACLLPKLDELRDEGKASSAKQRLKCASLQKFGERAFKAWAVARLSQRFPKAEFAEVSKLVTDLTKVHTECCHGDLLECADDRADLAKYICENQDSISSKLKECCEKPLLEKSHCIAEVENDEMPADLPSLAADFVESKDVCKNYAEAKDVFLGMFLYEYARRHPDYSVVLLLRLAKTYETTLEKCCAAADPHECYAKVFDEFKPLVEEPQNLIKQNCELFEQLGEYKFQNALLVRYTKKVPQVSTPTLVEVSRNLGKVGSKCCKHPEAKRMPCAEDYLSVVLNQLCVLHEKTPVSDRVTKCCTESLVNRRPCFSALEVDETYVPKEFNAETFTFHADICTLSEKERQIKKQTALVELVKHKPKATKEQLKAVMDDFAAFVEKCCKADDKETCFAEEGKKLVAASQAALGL

For `C[C@@H](O)[C@H](NC(=O)C1CSSCC(NC(=O)C(Cc2ccccc2)NC(=O)CNC(=O)CNC(=O)[C@@H](CC(=O)O)NC(=O)C(CC(=O)O)NC(=O)[C@@H](CNC(=O)CN2CCN(CC(N)=O)CCN(CC(N)=O)CCN(CC(N)=O)CC2)NC(=O)C(CN)NC(=O)c2ccc([Si](F)(C(C)(C)C)C(C)(C)C)cc2)C(=O)N[C@@H](Cc2ccc(O)cc2)C(=O)NC(Cc2c[nH]c3ccccc23)C(=O)N[C@@H](CCCCN)C(=O)N[C@@H]([C@@H](C)O)C(=O)N1)C(=O)O` (stereo partly shown) [[Pb]36] ({Benzoyl(4-SiFtBu2)}-[ξDap][dDap](DO3AM)[ξD][dD]GG[ξF][ξC]Y[ξW]KT[ξC]T-OH; disulfide 8-13), the HSA [1] was 20.22 kDa, the tissue uptake at 1 h ([2]; AR42J tumor, AR42J tumor, read-out: Tumor % ID/g ± SD) was 22.3 ± 3.85 %ID/g and the tissue uptake at 1 h ([2]; adrenal glands, read-out: Adrenal glands % ID/g ± SD) was 2 ± 0.27 %ID/g. For the same molecule, the tissue uptake at 1 h ([2]; blood, read-out: Blood % ID/g ± SD) was 1.3 ± 0.21 %ID/g, the tissue uptake at 1 h ([2]; bone, read-out: Bone % ID/g ± SD) was 3.38 ± 0.7 %ID/g and the tissue uptake at 1 h ([2]; heart, read-out: Heart % ID/g ± SD) was 0.71 ± 0.09 %ID/g. It also gave a tissue uptake at 1 h ([2]; intestine, read-out: Intestine % ID/g ± SD) of 1.31 ± 0.21 %ID/g, a tissue uptake at 1 h ([2]; kidneys, read-out: Kidneys % ID/g ± SD) of 43 ± 6.22 %ID/g and a tissue uptake at 1 h ([2]; liver, read-out: Liver % ID/g ± SD) of 8.47 ± 1.23 %ID/g. For the same molecule, the tissue uptake at 1 h ([2]; lung, read-out: Lung % ID/g ± SD) was 2.42 ± 0.5 %ID/g, the tissue uptake at 1 h ([2]; muscle, read-out: Muscle % ID/g ± SD) was 0.47 ± 0.08 %ID/g and the tissue uptake at 1 h ([2]; pancreas, read-out: Pancreas % ID/g ± SD) was 9.09 ± 1.79 %ID/g. For the same molecule, the tissue uptake at 1 h ([2]; spleen, read-out: Spleen % ID/g ± SD) was 0.84 ± 0.17 %ID/g, the tissue uptake at 1 h ([2]; stomach, read-out: Stomach % ID/g ± SD) was 4.32 ± 0.81 %ID/g and the “LogDpH=7.4” value [3] was −1.82 ± 0.05. It also gave an IC50 [4] of 6.57 ± 0.32 nM.
